The test system of one experiment is Staphylococcus aureus. Nature of the experiment: Minimum inhibitory concentration against Staphylococcus aureus (ATCC 6538). The class given is functional.
The subject of a further experiment is Escherichia coli. Put plainly: Minimum inhibitory concentration against Escherichia coli (ATCC 25922). The class given is functional.
Experiment [1] in a line: Minimum inhibitory concentration against Pseudomonas aeruginosa. The class given is functional, […] aeruginosa.
For the next experiment, the system named is Klebsiella pneumoniae. Put plainly: Minimum inhibitory concentration against Klebsiella pneumoniae (ATCC 13883). The class given is functional.
For experiment [2], the system named is Staphylococcus epidermidis. Nature of the experiment: Minimum inhibitory concentration against Staphylococcus epidermidis (ATCC 12228). The class given is functional.
The next experiment has as its system Staphylococcus hominis. Nature of the experiment: Minimum inhibitory concentration against Staphylococcus hominis (ATCC 27844). The class given is functional.

We go through four molecules from ChEMBL document CHEMBL1134000, “Structure elucidation and conformational properties of a novel bioactive clerodane diterpene using a combination of high field NMR spectroscopy, computational analysis and X-ray diffraction” (2001).

≈ marks a conversion by molar mass, not a printed value.

`CC(=O)OCC1=CCC[C@@H]2[C@@](C)(CC[C@H](C)CC(=O)O)[C@H](C)CC[C@]12C`: the MIC50 is 85 µM (≈ 31 µg/mL) in the experiment on Staphylococcus aureus; 1370 µM (≈ 499 µg/mL) with Escherichia coli; 1370 µM (≈ 499 µg/mL) in experiment [1]; 1370 µM (≈ 499 µg/mL) in the experiment on Klebsiella pneumoniae; 85 µM (≈ 31 µg/mL) in experiment [2]; 85 µM (≈ 31 µg/mL) against Staphylococcus hominis.

For `C[C@@H](CC[C@@]1(C)[C@H](C)CC[C@]2(C)C(CO)=CCC[C@H]12)CC(=O)O`, the MIC50 against Staphylococcus aureus stood at 1240 µM (≈ 400 µg/mL); against Escherichia coli it was 930 µM (≈ 300 µg/mL); in experiment [1], 930 µM (≈ 300 µg/mL); in the experiment on Klebsiella pneumoniae, 930 µM (≈ 300 µg/mL); in experiment [2], 1240 µM (≈ 400 µg/mL); against Staphylococcus hominis it was 1240 µM (≈ 400 µg/mL).

Take `C=C[C@](C)(O)CC[C@@H]1[C@@]2(C)CCCC(C)(C)[C@@H]2CC[C@@]1(C)O` [SCLAREOL]: the MIC50 (with Staphylococcus aureus; in experiment [2]; in the experiment with Staphylococcus hominis) was 320 µM (≈ 98.7 µg/mL) throughout.

Take `CN[C@@H]1[C@H](O[C@H]2[C@H](O[C@H]3[C@H](O)[C@@H](O)[C@H](N=C(N)N)[C@@H](O)[C@@H]3N=C(N)N)O[C@@H](C)[C@]2(O)C=O)O[C@@H](CO)[C@H](O)[C@H]1O` [STREPTOMYCIN]: the MIC50 worked out at 2.1 µM (≈ 1.22 µg/mL) in the experiment with Staphylococcus aureus; 0.6 µM (≈ 0.349 µg/mL) against Escherichia coli; 0.6 µM (≈ 0.349 µg/mL) against Klebsiella pneumoniae; 2.1 µM (≈ 1.22 µg/mL) in experiment [2]; 2.1 µM (≈ 1.22 µg/mL) in the experiment with Staphylococcus hominis.
